Where two headings read alike, the source gives them in different places.
How the values were obtained:
ICR mice [1] = conditions: second course
Description: (§1) Animal models: ICR mice aged 4-5 weeks were selected and assigned randomly into 5 groups with 6 mice per group.
100 μL of normal saline was administered intragastrically so as to eliminate the difference influenced by intragastric stimulation on mice.
(§2) Blank control group: The CTX solution injected in the experimental group was replaced with equal volumes of normal saline, and normal saline of the volume equal to 100 μL was administered intragastrically or intraperitoneally to replace Olive-C60 or olive oil.
(§3) The second course started 20 days after the day when the first course was initiated and mice were basically recovered. In other words, the 21st day of the first course was marked as the first day of the second course. Thereafter, intraperitoneal injection of CTX was conducted once a day for 5 consecutive days; and Olive-C60 or olive was administered intragastrically or intraperitoneally. 5 days later, no drug was given; and only observation or sampling was conducted.
Effects of Olive-C60 on myelosuppression in the second course on an intravital level: blood (13 μl) was taken from orbits of mice on the 4th day, the 7th day, the 10th day and the 17th day of the second course respectively, and was placed in a 3 ml centrifuge tube, and the blood routine examination was conducted using a blood cell automatic analyzer, wherein the main indexes related to myelosuppression are white blood cell counts (WBC), platelet counts (PLT), red blood cell counts (RBC) and hemoglobin determination (HGB). Meanwhile, changes in the weight of mice were monitored.

ICR mice [2] = assay: Effects of Olive-C60 on relevant enzyme activities in the second course (serum); type: in vivo; conditions: 18th day, Olive-C60 intragastrically with CTX, or CTX alone, versus blank control group
Description: as §1, §3
Effects of Olive-C60 on relevant enzyme activities in the second course on an intravital level: On the 18th day of the second course of the experiment, whole blood was taken from orbits, serums were obtained by centrifugation, and different relevant enzyme activities were tested.

ICR mice [3] = assay: Influence of GFNC on therapeutic effects of CTX on tumors and toxic experiment
Description: Blank control group: The injected drugs in the experimental groups were replaced with equal volumes of normal saline.
Metallofullerene derivative (GFNC) experimental group: Mice were injected intravenously with a GFNC solution at a dosage of 0.04 mmol of Gd^3+/kg of body weight of mice.
CTX+GFNC experimental group: Mice were injected intraperitoneally with a CTX solution at a dosage of 60 mg/kg of body weight of mice, and GFNC solution was injected intravenously at a dosage of 0.04 mmol of Gd^3+/kg of body weight of mice.
Injection of drugs was initiated on the 7th day after tumor inoculation, which was marked as the first day of the experiment. Intraperitoneal injection of CTX or intravenous injection of GFNC was conducted once a day for 5 consecutive days, and weights of mice and tumor diameters were measured every two days; thereafter, on the 17th day, mice were fetched and their eye balls were removed, and blood was taken respectively from their orbits; then, the blood was placed in a 5 ml centrifuge tube where it was centrifuged for 15 minutes at a rotational speed of 3,500 rpm; after that, a resultant serum was transferred into a 200 μL centrifuge tube, and blood biochemical indexes (e.g., ALT, ALP, AST, BUN, LDH and UA) of the mice were detected in a blood biochemical instrument; after mice were sacrificed by cervical dislocation, their main tissues and organs (hearts, livers, spleens, lungs and kidneys) were taken and weighed, and were then soaked in a 4% formalin solution; thereafter, histopathological section was conducted, and then, H&E staining was conducted. The blank control group, the cyclophosphamide (CTX) experimental group and the metallofullerene experimental group (GFNC) were processed in the same way for comparison.

ICR mice [4] = assay: Protection on myelosuppression caused by CTX in H22 tumor mice (blood routine examination); type: in vivo
Description: Blank control group: The drugs injected either intragastrically or intraperitoneally in the experimental groups were replaced with equal volumes of normal saline.
GFNC experimental group: Mice were injected with a GFNC aqueous solution (1 mM) via caudal veins at a dosage of 0.004 mmol of GFNC/kg of body weight of mice.
CTX+GFNC experimental group: Mice were injected intraperitoneally with a CTX solution at a dosage of 60 mg/kg of body weight of mice, and GFNC solution was injected intravenously at a dosage of 0.004 mmol of GFNC/kg of body weight of mice.
Injection of drugs was initiated on the 7th day after tumor inoculation, which was marked as the first day of the experiment. Intraperitoneal injection of CTX or intravenous injection of GFNC was conducted once a day for 5 consecutive days; thereafter, blood (20 μl) was taken respectively from orbits of mice on the 4th day, the 7th day, the 10th day, the 14th day and the 17th day, and was placed in a 3 ml centrifuge tube, and the blood routine examination was conducted using a blood cell automatic analyzer, wherein the main indexes related to myelosuppression are white blood cell counts (WBC), platelet counts (PLT), hemoglobin determination (HGB) and monocyte proportion (MO %).
Animal model: ICR mice aged 4-5 weeks were selected and assigned randomly into 4 groups with 6 mice per group. […]

ICR mice [5] = conditions: first course
Description: as §1, §2
After ICR mice aged 4-5 weeks were bred in a laboratory, CTX solutions were injected on the seventh day when their conditions were stable, which was marked as the first day of the experiment. Intraperitoneal injection of CTX was conducted once a day for 5 consecutive days; meanwhile, Olive-C60 or Olive or the normal saline was administered intragastrically or intraperitoneally. 5 days later, no injection was made, and only observation or sampling was conducted.
Effects of Olive-C60 on myelosuppression in the first course on an intravital level: blood (13 μl) was taken from orbits of mice on the 4th day, the 7th day, the 10th day and the 17th day respectively, and was placed in a 3 ml centrifuge tube, and the blood routine examination was conducted using a blood cell automatic analyzer, wherein the main indexes related to myelosuppression are white blood cell counts (WBC), platelet counts (PLT), red blood cell counts (RBC) and hemoglobin determination (HGB). Meanwhile, changes in the weight of mice were monitored.

ICR mice [6] = assay: Effects of Olive-C60 on blood biochemical indexes in the second course (serum); type: in vivo; conditions: 18th day, versus blank control group
Description: as §1, §3
Effects of Olive-C60 on blood biochemical indexes in the second course on an intravital level: On the 18th day of the second course of the experiment, whole blood was taken from orbits, serums were obtained by centrifugation, and blood biochemical indexes were tested.

[7] = CTX 60 mg/kg i.p. x5 days alone
[8] = 17th day, CTX alone or CTX+GFNC

O=P1(N(CCCl)CCCl)NCCCO1 (stereo not shown) [CTX, cyclophosphamide]
white blood cells on the 17th day (ICR mice [1]; 17th day, CTX alone or with Olive-C60): still below their normal levels | white blood cells, red blood cells, platelets and hemoglobin compared with the blank control group (ICR mice [1]; [7]): varying degrees of reduction | weight of mice (ICR mice [1]; CTX alone or with Olive-C60): differs greatly from that of the mice in other groups | weight of mice (ICR mice [1]; CTX alone or with Olive-C60, listed as cyclophosphamide): lower than that of the mice in any other groups | level of MDA (ICR mice [2]): higher than that of mice in the blank control group | histopathological sections of main tissues and organs (H&E staining) (ICR mice [3]; [8]): damaged to a certain extent | pathological sections of tumor sites: cells of tumor tissues (ICR mice [3]; [8]): die in great quantity | weight of mice (ICR mice [3]; CTX 60 mg/kg i.p. x5 days alone or with GFNC 0.04 mmol of Gd3+/kg intravenously): drops obviously in the initial stage of drug injection | monocytes (ICR mice [4]; CTX 60 mg/kg i.p. x5 days alone or with 0.004 mmol/kg material intravenously x5 days): abnormal hyperplasia | white blood cells, platelets and hemoglobin (ICR mice [4]; H22 tumor mice, CTX 60 mg/kg i.p. x5 days alone (versus blank control) or with 0.004 mmol/kg material intravenously x5 days (versus CTX group)): varying degrees of reduction | white blood cells, red blood cells, platelets and hemoglobin compared with the blank control group (ICR mice [5]; [7]): varying degrees of reduction | weight of mice (ICR mice [5]; CTX 60 mg/kg i.p. x5 days, alone or with Olive-C60 100 μL (1,500 ppm), after termination of CTX injection / later stage): lower than that of the mice in any other groups | level of uric acid in the serum (ICR mice [6]): far lower than that in the serum of mice in the blank control group

Source: patent US20190038667A1, “APPLICATION OF FULLERENE/METAL-FULLERENE FOR PREPARING PHARMACEUTICAL PRODUCT” (BEIJING FU NA KANG BIOTECHNOLOGY CO., LTD., priority 2016, published 2019)
